{"source": "patent US7683052B2", "about": "“Crystalline polymorph of bazedoxifene acetate” (Wyeth, priority 2004, dated 2010)", "origin": "cited, not measured here", "key": {"uterine response": {"test_system": "uterine response", "conditions": "preclinical models of uterine stimulation"}, "ovariectomized rat": {"test_system": "ovariectomized rat", "conditions": "ovariectomized rat model of osteopenia"}, "[1]": {"test_system": "MCF-7 cell line (human breast cancer cell line)", "conditions": "MCF-7 human breast cancer cell line"}}, "data": [{"smiles": "Cc1c(-c2ccc(O)cc2)n(Cc2ccc(OCCN3CCCCCC3)cc2)c2ccc(O)cc12", "note": "[bazedoxifene acetate, 1-[4-(2-azepan-1-yl-ethoxy)-benzyl]-2-(4-hydroxy-phenyl)-3-methyl-1H-indol-5-ol acetic acid]", "values": [{"measurement": "Stimulation of uterine response", "setting": "uterine response", "result": "little or no stimulation of uterine response"}, {"measurement": "Effect on bone loss and cholesterol", "setting": "ovariectomized rat", "result": "estrogen agonist-like effect in preventing bone loss and reducing cholesterol"}, {"measurement": "Estrogen agonist/antagonist behaviour in MCF-7 cells", "setting": "[1]", "result": "behaves as an estrogen antagonist"}]}]}
